Assay results: article PMC9578445, “Association of respiratory failure with inhibition of NaV1.6 in the phrenic nerve” (Channels, 2022)
Where two headings read alike, the source gives them in different places.

Tests used:
[1] = system: rat diaphragm with the phrenic nerve attached; experiment: Rat hemisected diaphragm (HMD) assay, ex vivo; details: Rattus norvegicus; relative to 3 μM d-Tubocurarine relaxation = 100%
Description: Wistar derived male or female rats weighing 450 ± 50 g were euthanized by CO2 overexposure. The diaphragm with the phrenic nerve attached was removed and placed into a tissue recording chamber containing Krebs solution pH 7.4; (composition in g/L: NaCl 6.89, KCl 0.35, CaCl2 0.277, KH2PO4 0.163, MgSO4 · 7H2O 0.296, NaHCO3 2.1 and glucose 1.8). A piece of cotton was attached to the top of the phrenic nerve over the jaw electrodes. A second piece of cotton was attached to the tip of the tendinous tissue at the apex of the diaphragm preparation for attachment to an isometric transducer under 1 g tension. The rib of the diaphragm preparation was secured to the bottom of the jaw electrodes. […] The recording chamber was placed into a water bath kept at a temperature of 32°C by means of a suitable thermoregulator consisting of a thermostat and heating elements in addition to a water circulator.
The isometric transducer was connected to an amplifier and the tissue response was recorded on a two-pen recorder set at 1 volt. Field stimulation [S48 Stimulator (GRASS) set at 0.2 Hz (12 pulses per minute), 0.5 ms pulse duration at 70% of maximum voltage (about 3 to 5 volts)] delivered to two circle platinum electrodes (0.2 cm in diameter) was applied for transmural tissue stimulation. Each tissue preparation was washed three times in Krebs solution every 15 minutes for a 60 minute equilibration period and permitted to develop contractions. D-Tubocurarine (300 µM dissolved in 0.1 mL distilled water for a final 3 µM bath concentration) was added to establish an isometrically recorded control relaxation response ranging from one to two centimeters and corresponding to 60–70% of maximal relaxation. […] The tissue was then washed periodically until the contraction returns to the baseline value.
Sixty minutes later, the test compound was added (e.g. 30 mM in 0.01 mL vehicle of 100% DMSO, for final concentration of 30 µM test compound and 0.1% DMSO). A test compound recorded relaxation response of 50% or more (≥50%) within 5 minutes, relative to the 3 µM d-Tubocurarine control response, indicates neuromuscular blocking activity.

[2] = system: anesthetized male CD rats; experiment: Rat Cardiovascular/Respiratory (CV/R) assay; assay type: in vivo; design: ∆ QRS Interval: unit not given here
Method: Male CD Rats were anesthetized with ketamine:xylazine (85 mg/kg:5 mg/kg, im, to effect). The left femoral artery and vein were cannulated for the measurement of blood pressure and the administration of test agent, respectively. The right femoral vein was cannulated for maintenance anesthetic infusion (ketamine:xylazine ~35 mg/kg/hr:1.5 mg/kg/hr, iv, to effect). Needle electrodes were placed subcutaneously at the right axillary and left inguinal areas to record lead II ECGs. When ECG intervals were required to determine effect on cardiac conduction a pacing/recording electrode catheter was advanced through the right jugular vein to pace the heart. ECG intervals were then measured at a fixed cardiac rate of 400 beats/minute to remove any variability of intrinsic heart rate on these parameters.
To determine the test agent-dependent effect on respiratory rate, a tracheotomy was also performed using a short length of polyethylene tubing containing a thermistor (AD Instruments). The change in temperature detected by the thermistor was used to calculate respiratory rate.
(§1) For in vivo CVR and phrenic nerve activity studies, all raw signals were amplified via general purposed biological amplifier (filter settings DC – 3-5 KhZ) then digitized, calibrated and collected at a minimum of 500 Hz (1000 Hz for ECG and 2000 Hz for cardiac electrograms, and 10 KHz for phrenic nerve activity) using Notocord-HEM data acquisition and analysis software. The raw signal was filtered following acquisition with a bandpass filter set to 200–800 Hz). Vehicle (100% dimethylformamdide, DMF) or compound formulated in the vehicle was administered as a 30-minute IV infusion at 0.0167 μL/g body weight/min. Doses were selected to achieve unbound plasma concentrations in range of measured Nav1.6 IC50 values when infused at 0.0167uL/g body weight/min based on measured rat clearance, plasma protein binding and Nav1.6 IC50. Exposure in rats was determined in separate pharmacokinetics experiments where compounds were administered via IV dosing.

[3] = Plasma exposure in rat CV/R assay; assay type: in vivo; details: for concentration at 15 min / concentration at 30 min: male, CD, plasma, iv
Description: as §1, with “Doses were selected to achieve unbound plasma concentrations in range of measured Nav1.6 IC50 values when infused at 0.0167uL/g body weight/min based on measured rat clearance, plasma protein binding and Nav1.6 IC50.” left out

[4] = biological target: Pgp (Homo sapiens, UniProt P08183); experiment: Permeability BA/AB ratio (Pgp transport); assay type: in vitro ADME; details: not told
[5] = rat, IV infusion, 30 mg/kg, 15 min
[6] = rat, IV infusion, 30 mg/kg, 30 min
[7] = rat, IV infusion, 60 mg/kg, 15 min
[8] = rat, 30 mg/kg, rat, IV infusion, 30 mg/kg, read-out: Total [plasma]
[9] = rat, 30 mg/kg, rat, IV infusion, 30 mg/kg, read-out: Unbound [plasma]
[10] = rat, IV infusion, 60 mg/kg, 21–23 min, just prior to death

Pgp, sequence (P08183 whole entry, the tested form may be a part): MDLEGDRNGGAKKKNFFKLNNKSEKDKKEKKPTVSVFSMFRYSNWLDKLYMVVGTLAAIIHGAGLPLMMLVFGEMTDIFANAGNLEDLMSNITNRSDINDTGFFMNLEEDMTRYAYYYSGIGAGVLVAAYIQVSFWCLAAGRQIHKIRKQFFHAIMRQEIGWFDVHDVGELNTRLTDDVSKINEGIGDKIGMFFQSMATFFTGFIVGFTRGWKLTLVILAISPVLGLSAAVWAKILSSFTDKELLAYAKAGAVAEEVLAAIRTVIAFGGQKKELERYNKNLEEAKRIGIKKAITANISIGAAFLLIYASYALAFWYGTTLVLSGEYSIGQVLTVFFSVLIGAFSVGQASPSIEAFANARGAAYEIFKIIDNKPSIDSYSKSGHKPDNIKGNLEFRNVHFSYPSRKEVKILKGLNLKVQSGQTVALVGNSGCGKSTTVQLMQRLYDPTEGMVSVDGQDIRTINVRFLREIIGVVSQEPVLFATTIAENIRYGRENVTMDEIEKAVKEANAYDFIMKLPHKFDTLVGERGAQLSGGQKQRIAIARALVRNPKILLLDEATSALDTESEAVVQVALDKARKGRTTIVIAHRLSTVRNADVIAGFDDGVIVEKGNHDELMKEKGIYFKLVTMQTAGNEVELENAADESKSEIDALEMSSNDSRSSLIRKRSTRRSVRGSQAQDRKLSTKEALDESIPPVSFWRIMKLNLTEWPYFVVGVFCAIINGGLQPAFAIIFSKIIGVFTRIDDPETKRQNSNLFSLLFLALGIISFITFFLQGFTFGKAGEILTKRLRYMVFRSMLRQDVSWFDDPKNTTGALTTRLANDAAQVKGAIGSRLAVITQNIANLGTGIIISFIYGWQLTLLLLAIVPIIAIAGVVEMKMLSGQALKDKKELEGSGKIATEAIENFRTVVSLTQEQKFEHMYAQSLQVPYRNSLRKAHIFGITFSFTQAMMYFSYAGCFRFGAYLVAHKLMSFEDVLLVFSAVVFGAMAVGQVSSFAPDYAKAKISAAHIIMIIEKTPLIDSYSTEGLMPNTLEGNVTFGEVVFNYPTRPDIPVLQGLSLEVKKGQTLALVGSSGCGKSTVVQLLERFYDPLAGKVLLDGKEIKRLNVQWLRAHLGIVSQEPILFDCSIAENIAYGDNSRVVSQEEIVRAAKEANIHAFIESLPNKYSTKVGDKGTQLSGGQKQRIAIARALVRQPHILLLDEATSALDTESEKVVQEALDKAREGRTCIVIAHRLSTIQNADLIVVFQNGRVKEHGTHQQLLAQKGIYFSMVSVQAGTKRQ

SMILES: N#Cc1cc(S(=O)(=O)Nc2cscn2)ccc1Oc1ccc(Cl)cc1-c1ccnn1C1CNC1 [SSCI-5]
- IC50 [1]: 11 µM
- mortality ([2]; rat CV/R assay, IV infusion, doses tested): mortality
- ∆ Heart Rate [2, 5]: −1.7 ± 1.3 bpm
- ∆ Mean Arterial Pressure [2, 5]: 14.0 ± 2.1 mmHg
- ∆ QRS Interval [2, 5]: 1.5 ± 1.1
- ∆ respiratory rate [2, 5]: −13.0 ± 3.4%
- ∆ Heart Rate [2, 6]: −3.7 ± 2.8 bpm
- ∆ Mean Arterial Pressure [2, 6]: 13.3 ± 5.5 mmHg
- ∆ QRS Interval [2, 6]: 4.6 ± 3.2
- ∆ respiratory rate [2, 6]: −10.2 ± 2.6%
- ∆ respiratory rate ([2]; rat, IV infusion, 60 mg/kg, 21–23 min): −100%
- ∆ Heart Rate [2, 7]: 1.0 bpm
- ∆ Mean Arterial Pressure [2, 7]: 5.2 mmHg
- ∆ QRS Interval [2, 7]: 5.2
- ∆ respiratory rate [2, 7]: −15.6%
- time to respiratory and cardiac collapse ([2]; rat, infusion without ventilatory support): ≤ 30 min
- concentration at 15 min [3, 8]: 38.2 ± 1.6 µM
- concentration at 15 min [3, 9]: 4.9 ± 0.2 µM
- concentration at 30 min [3, 8]: 42.1 ± 1.2 µM
- concentration at 30 min [3, 9]: 5.4 ± 0.2 µM
- concentration at 15 min ([3]; rat, 60 mg/kg, rat, IV infusion, 60 mg/kg, read-out: Total [plasma]): 67.7 µM
- concentration at 15 min ([3]; rat, 60 mg/kg, rat, IV infusion, 60 mg/kg, read-out: Unbound [plasma]): 8.7 µM
- unbound plasma concentration just prior to death ([3]; rat CV/R assay, blood samples taken just prior to death): 19.7 µM
- Total [plasma] [3, 10]: 154a μM
- Unbound [plasma] [3, 10]: 19.7a μM
- efflux ratio [4]: < 999
